Results as given in patent publication US8546603B2, “Substituted cyclopentanes having prostaglandin activity” (Allergan, Inc., priority 2007, dated 2013).
Read-outs that look alike come from different tables or passages of the source.

Columns and labels:
EP4 [1] = molecular target: T1, EP4 (Homo sapiens, UniProt P35408); assay: EP4 binding assay
Description: (§1) U.S. patent application Ser. No. 11/553,143, filed on Oct. 26, 2006, incorporated by reference herein, describes the methods used to obtain the in vitro data in Table 1 below.

EP2 [2] = molecular target: T2, EP2 (Homo sapiens, UniProt P43116); assay: EP2 binding assay
T2 sequence (P43116 whole entry): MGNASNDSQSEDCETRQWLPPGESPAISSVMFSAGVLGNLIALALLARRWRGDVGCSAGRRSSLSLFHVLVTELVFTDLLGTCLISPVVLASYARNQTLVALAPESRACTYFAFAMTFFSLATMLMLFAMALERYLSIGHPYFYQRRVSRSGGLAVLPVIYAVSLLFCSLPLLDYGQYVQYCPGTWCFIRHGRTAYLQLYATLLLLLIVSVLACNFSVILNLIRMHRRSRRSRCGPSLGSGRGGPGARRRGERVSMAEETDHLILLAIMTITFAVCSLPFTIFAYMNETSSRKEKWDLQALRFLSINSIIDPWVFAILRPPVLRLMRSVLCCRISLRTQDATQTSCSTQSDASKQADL
Description: as §1

EP2 [3] = molecular target: T2, EP2; assay: EP2 Ca2+ signal assay; assay type: cell-based; settings: for EP2 Ca2+ signal % PGE2: relative to PGE2
Description: as §1

EP2 [4] = molecular target: T2, EP2; assay: EP2 cAMP assay; assay type: cell-based
Description: as §1

EP3 = molecular target: T3, EP3 (Homo sapiens, UniProt P43115); assay: EP3 functional assay; assay type: cell-based
T3 sequence (P43115 1-390): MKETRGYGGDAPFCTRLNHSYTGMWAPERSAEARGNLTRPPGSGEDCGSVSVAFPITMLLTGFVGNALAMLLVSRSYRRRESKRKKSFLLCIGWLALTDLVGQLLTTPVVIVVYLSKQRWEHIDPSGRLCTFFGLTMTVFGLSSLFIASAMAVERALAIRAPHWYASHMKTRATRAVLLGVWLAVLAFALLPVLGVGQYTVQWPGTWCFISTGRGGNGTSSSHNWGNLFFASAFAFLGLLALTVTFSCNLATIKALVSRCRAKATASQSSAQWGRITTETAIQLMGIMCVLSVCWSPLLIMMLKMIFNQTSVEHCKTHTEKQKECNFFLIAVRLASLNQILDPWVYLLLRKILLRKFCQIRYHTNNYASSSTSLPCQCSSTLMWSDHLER
Description: as §1

EP4 [5] = molecular target: T1, EP4; assay: EP4 Ca2+ signal assay; assay type: cell-based; settings: for EP4 Ca2+ signal % PGE2: relative to PGE2
Description: as §1

EP1 = molecular target: T4, EP1 (Homo sapiens, UniProt P34995); assay: EP1 functional assay; assay type: cell-based
T4 sequence (P34995 1-402): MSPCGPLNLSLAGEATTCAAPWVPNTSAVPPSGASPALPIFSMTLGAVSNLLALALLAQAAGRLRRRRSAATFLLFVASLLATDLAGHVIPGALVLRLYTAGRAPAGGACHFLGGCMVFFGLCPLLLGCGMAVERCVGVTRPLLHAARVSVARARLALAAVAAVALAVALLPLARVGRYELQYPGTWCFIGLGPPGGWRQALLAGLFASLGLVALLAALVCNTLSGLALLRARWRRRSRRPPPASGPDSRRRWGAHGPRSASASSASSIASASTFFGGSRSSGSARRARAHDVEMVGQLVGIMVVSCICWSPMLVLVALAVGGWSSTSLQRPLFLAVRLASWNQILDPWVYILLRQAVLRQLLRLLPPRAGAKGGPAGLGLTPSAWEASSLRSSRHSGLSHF
Description: as §1

TP = molecular target: T5, TP (Homo sapiens, UniProt P21731); assay: TP functional assay; assay type: cell-based
T5 sequence (P21731 1-343): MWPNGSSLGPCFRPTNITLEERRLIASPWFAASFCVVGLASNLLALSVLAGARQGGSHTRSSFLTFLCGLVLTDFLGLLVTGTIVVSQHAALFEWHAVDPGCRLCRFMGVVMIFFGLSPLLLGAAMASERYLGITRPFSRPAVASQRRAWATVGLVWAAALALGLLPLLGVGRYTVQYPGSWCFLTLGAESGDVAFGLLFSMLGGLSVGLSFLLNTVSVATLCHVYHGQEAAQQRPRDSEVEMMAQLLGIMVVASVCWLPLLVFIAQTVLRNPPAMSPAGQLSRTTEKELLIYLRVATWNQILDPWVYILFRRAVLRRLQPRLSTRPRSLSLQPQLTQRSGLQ
Description: as §1

T1 sequence (P35408 whole entry): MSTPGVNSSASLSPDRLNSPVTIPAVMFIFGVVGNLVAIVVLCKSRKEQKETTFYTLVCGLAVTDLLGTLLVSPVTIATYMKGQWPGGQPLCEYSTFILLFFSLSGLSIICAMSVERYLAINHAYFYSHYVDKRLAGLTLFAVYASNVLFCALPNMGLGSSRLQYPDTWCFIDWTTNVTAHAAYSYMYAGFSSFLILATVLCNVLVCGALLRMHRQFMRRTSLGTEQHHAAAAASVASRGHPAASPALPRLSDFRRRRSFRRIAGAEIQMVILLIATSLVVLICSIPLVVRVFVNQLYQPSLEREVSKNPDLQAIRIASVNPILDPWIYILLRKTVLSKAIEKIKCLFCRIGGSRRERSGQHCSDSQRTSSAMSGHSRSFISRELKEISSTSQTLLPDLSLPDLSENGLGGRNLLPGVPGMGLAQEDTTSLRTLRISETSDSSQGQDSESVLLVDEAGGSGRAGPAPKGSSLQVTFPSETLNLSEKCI

SMILES	EC50 (EP4 [1]) [nM]	EP4 Binding % Inh (EP4 [1]; listed as 219309) [%]	EC50 (EP2 [2]) [nM]	EP2 Binding % Inh (EP2 [2]; listed as 219309) [%]	EC50 (EP2 [3]) [nM]	EP2 Ca2+ signal % PGE2 (EP2 [3]; listed as 219309) [%]	EC50 (EP2 [4]) [nM]	EP4 Binding % Inh (EP4 [1]) [%]	EP2 Binding % Inh (EP2 [2]) [%]	EC50 (EP3) [nM]	EC50 (EP4 [5]) [nM]	EP4 Ca2+ signal % PGE2 (EP4 [5]) [%]	EP2 Ca2+ signal % PGE2 (EP2 [3]) [%]	EC50 (EP1) [nM]	EC50 (TP) [nM]	EP4 Binding % Inh (EP4 [1]; listed as 219310) [%]	EP2 Binding % Inh (EP2 [2]; listed as 219310) [%]	EP2 Ca2+ signal % PGE2 (EP2 [3]; listed as 219310) [%]
COC(/C=C/[C@@H]1[C@@H](CCCc2ccc(C(=O)O)s2)[C@H](Cl)C[C@H]1O)CCC[C@@H](C)O (stereo partly shown) [AGN-219309]	> 10000	9	3310	68	4020	63	25	–	–	–	–	–	–	–	–	–	–	–
C[C@@H](O)CCC[C@H](O)/C=C/[C@@H]1[C@@H](CCCc2ccc(C(=O)O)s2)[C@H](Cl)C[C@H]1O [AGN-217510]	2350	–	66	–	7.4	–	0.06	64	99	499	145	121	106	724	–	–	–	–
C[C@H](O)CCC[C@H](O)/C=C/[C@@H]1[C@@H](CCCc2ccc(C(=O)O)s2)[C@H](Cl)C[C@H]1O [AGN-221568]	1280	–	381	–	20	–	1.4	98	91	–	35	120	91	–	–	–	–	–
COC(/C=C/[C@@H]1[C@@H](CCCc2ccc(C(=O)O)s2)[C@H](Cl)C[C@H]1O)CCC[C@@H](C)O (stereo partly shown) [AGN-219310]	> 10000	–	171	–	281	–	3	–	–	–	–	–	–	–	–	6	90	77

Continued, values first:

EC50 (EP4 [1]) [nM]	EP4 Binding % Inh (EP4 [1]; listed as 219309) [%]	EC50 (EP2 [2]) [nM]	EP2 Binding % Inh (EP2 [2]; listed as 219309) [%]	EC50 (EP2 [3]) [nM]	EP2 Ca2+ signal % PGE2 (EP2 [3]; listed as 219309) [%]	EC50 (EP2 [4]) [nM]	EP4 Binding % Inh (EP4 [1]) [%]	EP2 Binding % Inh (EP2 [2]) [%]	EC50 (EP3) [nM]	EC50 (EP4 [5]) [nM]	EP4 Ca2+ signal % PGE2 (EP4 [5]) [%]	EP2 Ca2+ signal % PGE2 (EP2 [3]) [%]	EC50 (EP1) [nM]	EC50 (TP) [nM]	EP4 Binding % Inh (EP4 [1]; listed as 219310) [%]	EP2 Binding % Inh (EP2 [2]; listed as 219310) [%]	EP2 Ca2+ signal % PGE2 (EP2 [3]; listed as 219310) [%]	SMILES
1670	–	487	–	34	–	0.9	75	87	21	193	102	100	2760	5270	–	–	–	C[C@@H](O)CCC[C@H](O)/C=C/[C@H]1[C@H](O)CC(=O)[C@@H]1CCCCCCC(=O)O [AGN-191287]
1510	–	530	–	28	–	0.7	75	92	11	192	100	100	308	3010	–	–	–	C[C@@H](O)CCC[C@H](O)/C=C/[C@H]1[C@H](O)CC(=O)[C@@H]1C/C=C\CCCC(=O)O [AGN-191286]
